Assay results: ChEMBL document CHEMBL3046001, “4-Thiazolidinone and 1-thia-3,4,9-triaza fluorene conjugates: synthesis, characterization and antimicrobial screening” (2013)
≈ marks a conversion by molar mass, not a printed value. Calls of active or inactive are those of the source. The calls are words filed in the database; no cut-off is given here.

How the values were obtained:
[1] = system: Penicillium chrysogenum; experiment: Antifungal activity against Penicillium chrysogenum MTCC 161 assessed as growth inhibition at 750 ug/mL after 48 hr by agar diffusion method; type: functional; conditions: MTCC 161, 48 h, read-out: DIZ
[2] = system: Bacillus subtilis; experiment: Antibacterial activity against Bacillus subtilis MTCC 441 assessed as growth inhibition at 1250 ug/mL after 48 hr by agar diffusion method; type: functional; conditions: MTCC 441, 48 h, read-out: DIZ
[3] = system: Bacillus subtilis; experiment: Antibacterial activity against Bacillus subtilis MTCC 441 assessed as growth inhibition at 1000 ug/mL after 48 hr by agar diffusion method; type: functional; conditions: MTCC 441, 48 h, read-out: DIZ
[4] = system: Pseudomonas fluorescens; experiment: Antibacterial activity against Pseudomonas fluorescens MTCC 2421 assessed as growth inhibition at 750 ug/mL after 48 hr by agar diffusion method; type: functional; conditions: MTCC 2421, 48 h, read-out: DIZ
[5] = system: Micrococcus luteus; experiment: Antibacterial activity against Micrococcus luteus MTCC 1538 assessed as growth inhibition at 1250 ug/mL after 48 hr by agar diffusion method; type: functional; conditions: MTCC 1538, 48 h, read-out: DIZ
[6] = system: Aspergillus niger; experiment: Antifungal activity against Aspergillus niger MTCC 2546 assessed as growth inhibition at 100 ug/mL after 48 hr by agar diffusion method; type: functional, organism-based
[7] = system: Penicillium chrysogenum; experiment: Antifungal activity against Penicillium chrysogenum MTCC 161 assessed as growth inhibition at 100 ug/mL after 48 hr by agar diffusion method; type: functional, organism-based
[8] = system: Escherichia coli; experiment: Antibacterial activity against Escherichia coli MTCC 1573 assessed as growth inhibition at 1250 ug/mL after 48 hr by agar diffusion method; type: functional; conditions: MTCC 1573, 48 h, read-out: DIZ
[9] = system: Bacillus subtilis; experiment: Antibacterial activity against Bacillus subtilis MTCC 441 assessed as growth inhibition at 250 ug/mL after 48 hr by agar diffusion method; type: functional; conditions: MTCC 441, 48 h, read-out: DIZ
[10] = system: Pseudomonas fluorescens; experiment: Antibacterial activity against Pseudomonas fluorescens MTCC 2421 assessed as growth inhibition at 1000 ug/mL after 48 hr by agar diffusion method; type: functional; conditions: MTCC 2421, 48 h, read-out: DIZ
[11] = system: Escherichia coli; experiment: Antibacterial activity against Escherichia coli MTCC 1573 assessed as growth inhibition at 250 ug/mL after 48 hr by agar diffusion method; type: functional; conditions: MTCC 1573, 48 h, read-out: DIZ
[12] = system: Micrococcus luteus; experiment: Antibacterial activity against Micrococcus luteus MTCC 1538 assessed as growth inhibition at 100 ug/mL after 48 hr by agar diffusion method; type: functional
[13] = system: Bacillus pumilus; experiment: Antibacterial activity against Bacillus pumilus MTCC 1456 assessed as growth inhibition at 250 ug/mL after 48 hr by agar diffusion method; type: functional; conditions: MTCC 1456, 48 h, read-out: DIZ
[14] = system: Penicillium chrysogenum; experiment: Antifungal activity against Penicillium chrysogenum MTCC 161 assessed as growth inhibition at 1250 ug/mL after 48 hr by agar diffusion method; type: functional; conditions: MTCC 161, 48 h, read-out: DIZ
[15] = system: Pseudomonas fluorescens; experiment: Antibacterial activity against Pseudomonas fluorescens MTCC 2421 assessed as growth inhibition at 100 ug/mL after 48 hr by agar diffusion method; type: functional; conditions: MTCC 2421, 48 h, read-out: DIZ
[16] = system: Escherichia coli; experiment: Antibacterial activity against Escherichia coli MTCC 1573 assessed as growth inhibition after 24 hr by tube dilution method; type: functional; conditions: MTCC 1573, 24 h
[17] = system: Pseudomonas aeruginosa; experiment: Antibacterial activity against Pseudomonas aeruginosa MTCC 424 assessed as growth inhibition at 250 ug/mL after 48 hr by agar diffusion method; type: functional; conditions: MTCC 424, 48 h, read-out: DIZ
[18] = system: Pseudomonas aeruginosa; experiment: Antibacterial activity against Pseudomonas aeruginosa MTCC 424 assessed as growth inhibition at 750 ug/mL after 48 hr by agar diffusion method; type: functional; conditions: MTCC 424, 48 h, read-out: DIZ
[19] = system: Aspergillus niger; experiment: Antifungal activity against Aspergillus niger MTCC 2546 assessed as growth inhibition at 750 ug/mL after 48 hr by agar diffusion method; type: functional; conditions: MTCC 2546, 48 h, read-out: DIZ
[20] = system: Penicillium chrysogenum; experiment: Antifungal activity against Penicillium chrysogenum MTCC 161 assessed as growth inhibition at 500 ug/mL after 48 hr by agar diffusion method; type: functional; conditions: MTCC 161, 48 h, read-out: DIZ
[21] = system: Pseudomonas fluorescens; experiment: Antibacterial activity against Pseudomonas fluorescens MTCC 2421 assessed as growth inhibition at 1250 ug/mL after 48 hr by agar diffusion method; type: functional; conditions: MTCC 2421, 48 h, read-out: DIZ
[22] = system: Bacillus subtilis; experiment: Antibacterial activity against Bacillus subtilis MTCC 441 assessed as growth inhibition after 24 hr by tube dilution method; type: functional; conditions: MTCC 441, 24 h
[23] = system: Staphylococcus aureus; experiment: Antibacterial activity against Staphylococcus aureus MTCC 1430 assessed as growth inhibition after 24 hr by tube dilution method; type: functional; conditions: MTCC 1430, 24 h
[24] = system: Aspergillus niger; experiment: Antifungal activity against Aspergillus niger MTCC 2546 assessed as growth inhibition at 250 ug/mL after 48 hr by agar diffusion method; type: functional; conditions: MTCC 2546, 48 h, read-out: DIZ
[25] = system: Bacillus subtilis; experiment: Antibacterial activity against Bacillus subtilis MTCC 441 assessed as growth inhibition at 500 ug/mL after 48 hr by agar diffusion method; type: functional; conditions: MTCC 441, 48 h, read-out: DIZ
[26] = system: Bacillus pumilus; experiment: Antibacterial activity against Bacillus pumilus MTCC 1456 assessed as growth inhibition at 100 ug/mL after 48 hr by agar diffusion method; type: functional; conditions: MTCC 1456, 48 h, read-out: DIZ
[27] = system: Aspergillus niger; experiment: Antifungal activity against Aspergillus niger MTCC 2546 assessed as growth inhibition at 1250 ug/mL after 48 hr by agar diffusion method; type: functional; conditions: MTCC 2546, 48 h, read-out: DIZ
[28] = system: Aspergillus niger; experiment: Antifungal activity against Aspergillus niger MTCC 2546 assessed as growth inhibition at 500 ug/mL after 48 hr by agar diffusion method; type: functional; conditions: MTCC 2546, 48 h, read-out: DIZ
[29] = system: Escherichia coli; experiment: Antibacterial activity against Escherichia coli MTCC 1573 assessed as growth inhibition at 1000 ug/mL after 48 hr by agar diffusion method; type: functional; conditions: MTCC 1573, 48 h, read-out: DIZ
[30] = system: Bacillus pumilus; experiment: Antibacterial activity against Bacillus pumilus MTCC 1456 assessed as growth inhibition at 1000 ug/mL after 48 hr by agar diffusion method; type: functional; conditions: MTCC 1456, 48 h, read-out: DIZ
[31] = system: Aspergillus niger; experiment: Antifungal activity against Aspergillus niger MTCC 2546 assessed as growth inhibition after 24 hr by tube dilution method; type: functional; conditions: MTCC 2546, 24 h
[32] = system: Pseudomonas aeruginosa; experiment: Antibacterial activity against Pseudomonas aeruginosa MTCC 424 assessed as growth inhibition at 100 ug/mL after 48 hr by agar diffusion method; type: functional; conditions: MTCC 424, 48 h, read-out: DIZ
[33] = system: Micrococcus luteus; experiment: Antibacterial activity against Micrococcus luteus MTCC 1538 assessed as growth inhibition at 750 ug/mL after 48 hr by agar diffusion method; type: functional; conditions: MTCC 1538, 48 h, read-out: DIZ
[34] = system: Pseudomonas aeruginosa; experiment: Antibacterial activity against Pseudomonas aeruginosa MTCC 424 assessed as growth inhibition at 500 ug/mL after 48 hr by agar diffusion method; type: functional; conditions: MTCC 424, 48 h, read-out: DIZ
[35] = system: Escherichia coli; experiment: Antibacterial activity against Escherichia coli MTCC 1573 assessed as growth inhibition at 500 ug/mL after 48 hr by agar diffusion method; type: functional; conditions: MTCC 1573, 48 h, read-out: DIZ
[36] = system: Staphylococcus aureus; experiment: Antibacterial activity against Staphylococcus aureus MTCC 1430 assessed as growth inhibition at 1000 ug/mL after 48 hr by agar diffusion method; type: functional; conditions: MTCC 1430, 48 h, read-out: DIZ
[37] = system: Penicillium chrysogenum; experiment: Antifungal activity against Penicillium chrysogenum MTCC 161 assessed as growth inhibition at 250 ug/mL after 48 hr by agar diffusion method; type: functional; conditions: MTCC 161, 48 h, read-out: DIZ
[38] = system: Escherichia coli; experiment: Antibacterial activity against Escherichia coli MTCC 1573 assessed as growth inhibition at 750 ug/mL after 48 hr by agar diffusion method; type: functional; conditions: MTCC 1573, 48 h, read-out: DIZ
[39] = system: Penicillium chrysogenum; experiment: Antifungal activity against Penicillium chrysogenum MTCC 161 assessed as growth inhibition after 24 hr by tube dilution method; type: functional; conditions: MTCC 161, 24 h

## O=C1CSC(c2cccc3ccccc23)N1c1nnc2c3cc(Cl)ccc3nc-2s1 (centres undefined)
[1]
  zone of inhibition at 750 µg/mL: 15 mm
[2]
  zone of inhibition at 1250 µg/mL: 20 mm
[3]
  zone of inhibition at 1000 µg/mL: 18 mm
[4]
  zone of inhibition at 750 µg/mL: 15 mm
[5]
  zone of inhibition at 1250 µg/mL: 20 mm
[6]
  growth inhibition (GI): inactive
[7]
  growth inhibition (GI): inactive
[8]
  zone of inhibition at 1250 µg/mL: 20 mm
[9]
  zone of inhibition at 250 µg/mL: 7 mm
[10]
  zone of inhibition at 1000 µg/mL: 20 mm
[11]
  zone of inhibition at 250 µg/mL: 10 mm
[12]
  growth inhibition (GI): inactive
[13]
  zone of inhibition at 250 µg/mL: 10 mm
[14]
  zone of inhibition at 1250 µg/mL: 18 mm
[15]
  zone of inhibition at 100 µg/mL: 8 mm
[16]
  MIC: 30 µg/mL (≈ 66.8 µM)
[17]
  zone of inhibition at 250 µg/mL: 10 mm
[18]
  zone of inhibition at 750 µg/mL: 13 mm
[19]
  zone of inhibition at 750 µg/mL: 13 mm
[20]
  zone of inhibition at 500 µg/mL: 11 mm
[21]
  zone of inhibition at 1250 µg/mL: 24 mm
[22]
  MIC: 150 µg/mL (≈ 334 µM)
[23]
  MIC: 150 µg/mL (≈ 334 µM)
[24]
  zone of inhibition at 250 µg/mL: 8 mm
[25]
  zone of inhibition at 500 µg/mL: 11 mm
[26]
  zone of inhibition at 100 µg/mL: 8 mm
[27]
  zone of inhibition at 1250 µg/mL: 18 mm
[28]
  zone of inhibition at 500 µg/mL: 11 mm
[29]
  zone of inhibition at 1000 µg/mL: 17 mm
[30]
  zone of inhibition at 1000 µg/mL: 17 mm
[31]
  MIC: 150 µg/mL (≈ 334 µM)
[32]
  zone of inhibition at 100 µg/mL: 8 mm
[33]
  zone of inhibition at 750 µg/mL: 12 mm
[34]
  zone of inhibition at 500 µg/mL: 12 mm
[35]
  zone of inhibition at 500 µg/mL: 13 mm
[36]
  zone of inhibition at 1000 µg/mL: 10 mm
[37]
  zone of inhibition at 250 µg/mL: 8 mm
[38]
  zone of inhibition at 750 µg/mL: 15 mm
[39]
  MIC: 150 µg/mL (≈ 334 µM)
